# Data published in patent publication US20070112026A1, “Carbostyril derivatives for accelerating salivation” (priority 2003, published 2007).
# Legend:
# [1] = tested on: patient with Sjögren's syndrome; assay: Patient record: earlier treatments of the same Sjögren's syndrome patient; assay type: in vivo, human; conditions: earlier treatment of the patient of Experiment 4
# Experimental: Around February 1999, the patient visited a hospital in view of dryness of mouth and difficulty in tearing. Then, they were diagnosed to have Sjögren's syndrome in view of antinuclear antibody: 160 times, anti-SSR-A antibody: 126 times, Gum test: 8 ml, lowered function of salivary gland, ophthalmic Silmer test (right 4 mm, left 3 mm), dry kerato-conjunctivitis. […] Besides, Salivate spray was also applied but it was not effective and discontinued. After moving their home because of marriage, their hospital was change on May 1, 2003. Before the changing the hospital, an ophthalmic drop containing chondroitin sulfate has frequently been used for treating dry conjunctivitis.
# [2] = tested on: patient suffering from mouth dryness accompanying Sjögren's syndrome; assay: Case of a patient suffering from mouth dryness accompanying Sjögren's syndrome (Saxon test); assay type: in vivo, human; conditions: for Subjective symptoms: 300 mg/day started May 29, 2003; for Salivation amount (Saxon test): 300 mg/day started May 29, 2003 (0.89 g at start), one patient
# Text: Effects of the present compound 2-(4-chlorobenzoyl-amino}-3-(2-quinolon-4-yl)propionic acid on a patient suffering from mouth dryness accompanying Sjögren's syndrome:
# (1) Patient: A person.
# (2) Chief Complaint: Cotton Mouth, Mattering of Eyes.
# The symptoms of the mouth dryness were significant dry of toungue and significant lowering of salivaition (0.52 g in Saxon test). No swelling of parotid gland. Eye dryness was Silmer test (right 2 mm, left 1 mm), Rose bengal test (3+). No inflammation of the eye. Examination findings were ESR 17 mm/hr., WBC 5500/μL, RBC 484×10^4/μL, Hgb 13.4 g/dL, T.P. 8.4 g/dL, Alb 4.4 g/dL, AST 17 IU/mL, ALT 9 IU/mL, Amylase 140 IU/L, CK 46 IU/L, Cr 0.69 mg/dL, BUN 14.0 mg/dL, CRP<0.3 mg/dL, ANA 640 folds (speckled pattern), anti-SS-A antibody 126 times, Anti-SS-B antibody, negative, IgG 2270 mg/dL, IgA 368 mg/dL, IgM 132 mg/dL, and immune complex, Ciq solid-phase method, 3.3 (positive). (5) Clinical Course:
# Administration of 2-(4-chloro-benzoylamino)-3-(2-quinolon-4-yl)propionic acid (300 mg/day)was started on May 29, 2003. […] 25, 2003 and then the subjective symptoms were improved. The salivation amount more increased to 1.86 g on Jul. 23, 2003 and then the subjective symptoms were also more improved.
# [3] = tested on: patients with Sjögren's syndrome; assay: Effects on xerostomia in patients with Sjögren's syndrome (subjective symptom scores, Saxon Test, overall evaluation); assay type: in vivo, human; conditions: for Salivation amount (Saxon test) / Total scores of subjective symptoms: 100 mg tablet orally three times per day, 21 patients; for Salivation amount (Saxon test): 1.29±1.00 g before administration; for Total scores of subjective symptoms: 9.6±4.1 before administration; for Overall evaluation: "Effective" / Overall evaluation: "Non-effective" / Overall evaluation: "Remarkably effective": of 21 patients
# Experimental: The effects of the present active compound on xerostomia in patients with Sjögren's syndrome was tested. The test was carried out for 21 patients (age: 27 to 85 years old, all female) who were diagnosed as surely having Sjögren's syndrome on the basis of Revised Diagnosis Standard for Sjögren's syndrome (issued by Ministry of Health, Labour and Welfare in Japan in 1999). Tablet containing 2-(4-chlorobenzoylamino)-3-(2-quinolon-4-yl)propionic acid (100 mg per tablet) was orally administered three times per day immediately after a meal (one tablet for each time) for 8 weeks. i) Evaluation by patients themselves as to subjective symptoms (e.g. feeling of dryness of the mouth, hydromania, pain in the mouth, taste disorder, difficulty in dietary intake, abnormality of saliva) before administration of tablet, after administration of tablet for 4 weeks and 8 weeks, respectively. […] Based on the salivation amount thus measured, the increasing rate of salivation was determined by the following equation: [formula] The effects of the test compound were evaluated based on both of the improvement of subjective symptoms and the salivation amount, which was classified in three degrees as follows. “Remarkably effective: Both of the improved rate of subjective symptoms and the increasing rate of salivation being more than 50%; “Effective”: Either of the improved rate of subjective symptoms or the increasing rate of salivation being more than 50%; “Non-effective”: Neither the improvement of subjective symptoms nor the increasing of salivation being observed. The experimental results were statistically evaluated in accordance with Wilcoxon's rank test.
# anesthetized rats = assay: Salivation amount in anesthetized rats after intravenous administration; assay type: in vivo; conditions: for Salivation amount: over 20 minutes, average ± standard error; for Salivation amount, comparison with the vehicle-treated group: vehicle = 100
# Experimental: The effects of the present active compound on salivation in anesthetized rats were studied as mentioned below. Models for studying salivation were prepared according to the method of Masunaga, et al. (Masunaga, H., et al., Long-lasting salivation induced by a novel Muscarinic receptor agonist SNI-201 in rats and dogs. Eur. J. Pharmacol., 339: 1-9, 1997). Namely, rats had been fasted from the day before the experiment except that the intake of water was freely allowed, and the rats were anesthetized with Nembutal (=pentobarbital sodium). The rats were put down on the back, and the neck was subjected to midline incision. An ATOM anionic fluid suction catheter of 6Fr. was inserted to the air tube in order to keep the airway clear. Next, a polyethylene tube (SP55 Natsume) containing a solution of 10 U/ml heparin in physiological saline was inserted into the […] for administration of a medicament. A 0.03 mg/ml or 0.1 mg/ml solution of the test compound (2-(4-Chlorobenzoylamino)-3-(2-quinolon-4-yl)-propionic acid; general name: Rebamipide) in 2% aqueous sodium hydrogen carbonate solution, and a vehicle (2% aqueous sodium hydrogen carbonate solution) as a control solution were used, and the test compound solution and the control solution in an amount of 1 mL/kg were respectively administered intravenously via the polyethylene tube inserted into the […]. Then, the salivation amount was measured every 10 minutes for 20 minutes with using cotton swabs, and the salivation amount per one minute was calculated from the total salivation amount for this period. In this measurement, the salivation amount was measured in such a way that the dried cotton swab (the weight thereof was previously measured) was inserted into the mouth of rat, and the swab was exchanged with a new dried one in every ten minutes, and the total salivation amount was calculated from the difference in the weight of the swab between before and after inserting into the mouth. The average salivation amount was calculated as measured in the vehicle-treated group (5 animals), the test compound (0.03 mg/kg)-treated group (5 animals) and the test compound (0.1 mg/kg)-treated group (4 animals), and the percentage of the average salivation amount in the test compound-treated groups against that of the vehicle-treated group was calculated.
# non-anesthetized rats = assay: Salivation amount in non-anesthetized rats after intragastric administration (esophagus diverticulum collection); assay type: in vivo; conditions: saliva collected for 4 hours, average ± standard error
# Experimental: The effects of the present active compound by intragastric administration in non-anesthetized rats with respect to the salivation were studied as mentioned below. Using non-anesthetized rats, the saliva being swallowed for 4 hours on awaking into the diverticulum placed at the esophagus was collected and the salivation amount (g) was measured. Vehicle (0.5% sodium carboxymethyl cellulose solution) or Rebamipide 10, 30 or 100 mg/kg was intragastrically administered once when the esophagus diverticulum was set, and as a result, the average ± standard error of the salivation amount was 0.88±0.23 g (n=7) in the vehicle-treated group, 0.99±0.21 g (n=8) in the Rebamipide (10 mg/kg)-treated group, 1.37±0.26 g (n=7) in the Rebamipide (30 mg/kg)-treated group, and 1.72±0.40 g (n=8) in the Rebamipide (100 mg/kg)-treated group.
smiles,measurement,setting,value
C[C@@H]1O[C@@]2(CS1)CN1CCC2CC1.Cl [Sebimerine hydrochloride],Side effects leading to stop of administration,[1],abdominal discomfort and stomach ache
"O=C(NC(Cc1cc(=O)[nH]c2ccccc12)C(=O)O)c1ccc(Cl)cc1 (centres unmarked) [Rebamipide, 2-(4-Chlorobenzoylamino)-3-(2-quinolon-4-yl)-propionic acid]",Subjective symptoms,"[2]; Jul. 23, 2003",more improved
same,Salivation amount (Saxon test),"[2]; Jul. 23, 2003",1.86 g
same,Subjective symptoms,"[2]; Jun. 25, 2003",improved
same,Salivation amount (Saxon test),"[2]; Jun. 25, 2003",1.55 g
same,Effectiveness,[3]; after 4 weeks,52.4%
same,Salivation amount (Saxon test),[3]; after 4 weeks,1.95 ± 1.21 g
same,Total scores of subjective symptoms,[3]; after 4 weeks,6.6±3.2
same,"Overall evaluation: ""Effective""",[3]; after 4 weeks,9 patients
same,"Overall evaluation: ""Non-effective""",[3]; after 4 weeks,10 patients
same,"Overall evaluation: ""Remarkably effective""",[3]; after 4 weeks,2 patients
same,Effectiveness,[3]; after 8 weeks,61.9%
same,Salivation amount (Saxon test),[3]; after 8 weeks,1.93 ± 1.14 g
same,Total scores of subjective symptoms,[3]; after 8 weeks,5.2±2.6
same,"Overall evaluation: ""Effective""",[3]; after 8 weeks,7 patients
same,"Overall evaluation: ""Non-effective""",[3]; after 8 weeks,8 patients
same,"Overall evaluation: ""Remarkably effective""",[3]; after 8 weeks,6 patients
same,Salivation amount,"anesthetized rats; 0.03 mg/kg intravenous, n=5, listed as Test compound",0.262 ± 0.084 mg/min
same,Salivation amount,"anesthetized rats; 0.03 mg/kg intravenous, n=5, listed as test compound",0.262 ± 0.084 mg/min
same,"Salivation amount, comparison with the vehicle-treated group",anesthetized rats; 0.03 mg/kg intravenous,205%
same,Salivation amount,"anesthetized rats; 0.1 mg/kg intravenous, n=4, listed as Test compound",0.305 ± 0.097 mg/min
same,Salivation amount,"anesthetized rats; 0.1 mg/kg intravenous, n=4, listed as test compound",0.305 ± 0.097 mg/min
same,"Salivation amount, comparison with the vehicle-treated group",anesthetized rats; 0.1 mg/kg intravenous,239%
same,Salivation amount,"non-anesthetized rats; 10 mg/kg intragastric once, n=8",0.99 ± 0.21 g
same,Salivation amount,"non-anesthetized rats; 30 mg/kg intragastric once, n=7",1.37 ± 0.26 g
same,Salivation amount,"non-anesthetized rats; 100 mg/kg intragastric once, n=8",1.72 ± 0.40 g
